Assay results reported in patent publication US20250064907A1, “THERAPEUTIC VACCINES FOR TREATMENT OF CHRONIC INFLAMMATORY DISEASES” (ATHEROVAX, LLC, priority 2023, published 2025).
Entries after “also recorded” stand apart in the source; their conditions may differ. Where no end group is shown, it is not given here.

Columns and labels:
[1] = system: Rat Colitis Model of Ulcerative Colitis; assay: Rat colitis model of ulcerative colitis: visual and gross observations; format: in vivo
Experimental: (§1) Rats were vaccinated with a human sTNFR2 peptide, DFALPVEKPLCLOR (SEQ ID NO: 18), targeting the human sTNFR2 peptide. The rats were injected with 25 μg of the peptide subcutaneously with 25 μg Alum as adjuvant in PBS 10 days before initiating colitis. The studies were performed in accordance with the recommendations of the Animal Care and Use Committee of Tbilisi State Medical University. Briefly, the colitis was induced by introduction of 4% acetic acid at 24-hour intervals for three days into the colon under light anesthesia (50 mg/kg ketamine HCl and 5 mg/kg xylaxine). Injections were intrarectal through 2 mm diameter, 6-8 cm long polyethylene catheter to deliver 1 mL solution. See Cagin et al., Exp. Ther. Med. 12 (5): 2958-2964 (2016).
The study design included 4 treatment groups:
Group B: alum only 10 day prior, followed by colitis
Group C: sTNFR2 peptide (SEQ ID NO: 18)+alum 10 day prior, followed by colitis
Group D: no vaccine and no colitis

TNFα = TNFα ELISA in rat colitis model; format: in vivo; conditions: for tissue resident TNFα: colon tissue; for reduction in TNFα: vaccinated animals
Experimental: as §1
(§2) TNFα and IL-6 cytokines were measured with ELISA kits according to the manufacturer's instructions (Invitrogen). The ELISA plates were developed with tetramethylbenzidine (TMB) substrate and absorbance was read at 450 nm using an ELx808 Ultra Microplate Reader (BioTek Instruments GmbH, Lucerne, Switzerland). […] Reduction in TNFα is consistent with loss of sTNFR2 binding.
(§3) All values reported are mean and standard error of the mean. Group comparisons are either two-tailed t-test or ANOVA calculated using Excel.

IL-6 = IL-6 ELISA in rat colitis model; format: in vivo; conditions: for tissue resident IL-6: colon tissue
Experimental: as §1, §2, §3

rat colon tissue = assay: Colon histology, rat colitis model; format: in vivo; conditions: for colon micrographs (H&E, Masson's trichrome): tissue loss and inflammation: administered 10 days prior to initiating colitis, result in words, listed as sTNR2 peptide
Experimental: as §1
Colon samples were fixed in 10% neutral buffered formalin for 24 hours at room temperature and embedded in paraffin. Tissue sections, 5 μm thick, were stained with hematoxylin and eosin (H&E), Masson's trichrome, and Periodic Acid-Schiff (PAS) according to the manufacturer's protocols. Histological evaluation of colons were assigned scores, (a score of 1 is normal and a score of 4 is severe pathology) for the number of animals with pathology >2, average pathology score, pathology distribution, and average inflammatory score (Table 7).

[2] = system: regulatory T cells (Tregs); assay: FoxP3 immunohistochemistry of colon, rat ulcerative colitis model; format: in vivo; conditions: 75 μg peptide and alum adjuvant one week prior to colitis; colon collected 8 days after initiation; vs unvaccinated
Experimental: These studies were performed in accordance with the recommendations of the Animal Care and Use Committee of Tbilisi State Medical University. Colitis was initiated following introduction of 4% acetic acid at 24-hour intervals for three days into colon under light anesthesia (50 mg/kg ketamine HCl and 5 mg/kg xylaxine). Injections were intrarectal through 2 mm diameter, 6-8 cm long polyethylene catheter to deliver 1 mL solution.
Colon samples were fixed in 10% neutral buffered formalin for 24 hours at room temperature and embedded in paraffin. Tissue sections 5 μm thick were stained with hematoxylin and eosin (H&E), Masson's trichrome, and Periodic Acid-Schiff stain (PAS) according to the manufacturer's protocols. The immunohistochemistry utilized a FoxP3 rabbit monoclonal antibody, ab215206, obtained from Abcam (Boston, MA) followed by a goat anti-rabbit secondary antibody conjugated with peroxidase.

thrombus = assay: Inferior vena cava ligation thrombus, wet weight; format: in vivo, Lewis rats; conditions: for Thrombus (wet weight): 4 hours after ligation, saline 0.015 ± 0.001
Experimental: (§4) Adult Lewis rats weighing 200-250 g were randomly distributed into three treatment groups with 4 male and 4 female rats in each group. Group 1 received 1.0 mL saline subcutaneously on days 0 and 14. Group 2 received 1.0 mL saline with 0.025 mg AtheroVax peptide (SEQ ID NO: 18) and 0.025 mg aluminum hydroxide adjuvant on days 0 and 14. Group 3 received 1.0 mL saline with 0.075 mg AtheroVax peptide (SEQ ID NO: 18) and 0.075 mg aluminum hydroxide adjuvant on days 0 and 14. […] The abdominal cavity was sutured immediately after the ligation. The rats were euthanized 4 hours after dressing.
(§5) The thrombus was removed from the rats and wet weight determined. In addition, blood was recovered from the rats and coagulation parameters prothrombin time (PT), thrombin time (TT), and fibrinogen were measured.
(§6) Statistical analysis of mean and standard deviation for male, female, and combined values were calculated for each of the coagulation parameters. Pairwise comparisons using the students T-test were performed using Excel. Significance was determined if the p-value is less than 0.05.

[3] = Blood coagulation parameters after inferior vena cava ligation; format: in vivo, Lewis rats; conditions: across doses, result in words
Experimental: as §4, §5, §6

[4] = circulating blood, vaccinated vs control animals, result in words
[5] = result in words, listed as AtheroVax
[6] = score of 1 is normal, 4 is severe pathology, colitis only group 4

Substance: DFALPVE/KPLCLQR (DFALPVEKPLCLQR; not fully specified; listed as Homo sapiens) [AtheroVax peptide (SEQ ID NO: 18)]
- elevations in body temperature ([1]; rats, 25 μg peptide with 25 μg Alum 10 days before colitis): significantly prevented
- loss of body weight ([1]; rats, 25 μg peptide with 25 μg Alum 10 days before colitis, visual observations): significantly prevented
- gross colon observations (hyperemic, edematous, thickened, sharply increased volume) ([1]; rats, peptide + alum 10 days before colitis, compared with Group A (unvaccinated)): not associated
- Bleeding ([1]; rats, subcutaneous injection 10 days before 4% acetic acid colitis, peptide 25 μg with 25 μg Alum): Hemoccult Negative
- Stool ([1]; rats, subcutaneous injection 10 days before 4% acetic acid colitis, peptide 25 μg with 25 μg Alum, listed as sTNFR2 peptide (SEQ ID NO: 18)+alum): Normal
- Stool ([1]; rats, subcutaneous injection 10 days before 4% acetic acid colitis, peptide 25 μg with 25 μg Alum, listed as sTNR2 peptide (SEQ ID NO: 18)+alum adjuvant): normal stools
- integrity of the colon and outcomes in the rat colitis model ([1]; vaccinated vs control animals, result in words): preserved integrity oof the colon and improved outcomes
- TNFα (mean ± SEM) (TNFα; ELISA, rat colitis model, injection 10 days before colitis, colitis only group 29.20 ± 0.65): 1.12 ± 0.13
- circulating levels of TNFα (TNFα; [4]): significantly lower
- tissue resident TNFα (TNFα; result in words): significantly lower
- tissue resident TNFα (TNFα; [5]): significant reductions
- reduction in TNFα (TNFα; result in words): significant reductions
- reduction in TNFα (TNFα; result in words, listed as sTNFR2 peptide (SEQ ID NO: 18)+alum): significant reduction
- IL-6 (mean ± SEM) (IL-6; ELISA, rat colitis model, injection 10 days before colitis, colitis only group 6.46 ± 0.22): 1.76 ± 0.13
- circulating levels of IL-6 (IL-6; [4]): significantly lower
- tissue resident IL-6 (IL-6; result in words): significantly lower
- tissue resident IL-6 (IL-6; [5]): significant reductions
- reduction in IL-6 (IL-6; vaccinated animals, result in words): significant reductions
- colon micrographs (H&E, Masson's trichrome): tissue loss and inflammation (rat colon tissue): significant protection against inflammation
- colon micrographs (H&E, Masson's trichrome): tissue loss and inflammation (rat colon tissue; (SEQ ID NO: 18) and alum adjuvant): significant protective effect
- Number animals with pathology >2 (1-5) (rat colon tissue; rat colitis model, colon histology): 5
- Average Inflammatory Score (1-4) (rat colon tissue; [6]): 2
- Average Pathology Score (1-4) (rat colon tissue; [6]): 1
- Pathology Distribution (1-4) (rat colon tissue; [6]): 2
- intensity of FoxP3 (Treg) staining in colon [2]: less intense; also recorded: do not stain as intensely
- number of FoxP3 positive cells in colon [2]: fewer cells; also recorded: reduced; also recorded: lower frequencies
- Thrombus (wet weight) (thrombus; Grp. 2, 25 μg peptide + adjuvant days 0 and 14): 0.011±0.001 grams
- Thrombus (wet weight) (thrombus; Grp. 3, 75 μg peptide + adjuvant days 0 and 14): 0.007±0.001 grams
- thrombus weight (thrombus; across doses, treatment prior to initiation of thrombosis, result in words): dose dependent smaller
- fibrinogen [3]: elevation
- prothrombin times [3]: increased
- thrombin time [3]: decreased
